The target in the first test is BTK enzyme (recombinant full-length BTK, hBTK) (Homo sapiens (Human), UniProt Q06187). Nature of the test: Btk enzyme activity assay, LANCE TR-FRET.
Sequence of BTK enzyme (recombinant full-length BTK, hBTK) (Q06187 whole entry): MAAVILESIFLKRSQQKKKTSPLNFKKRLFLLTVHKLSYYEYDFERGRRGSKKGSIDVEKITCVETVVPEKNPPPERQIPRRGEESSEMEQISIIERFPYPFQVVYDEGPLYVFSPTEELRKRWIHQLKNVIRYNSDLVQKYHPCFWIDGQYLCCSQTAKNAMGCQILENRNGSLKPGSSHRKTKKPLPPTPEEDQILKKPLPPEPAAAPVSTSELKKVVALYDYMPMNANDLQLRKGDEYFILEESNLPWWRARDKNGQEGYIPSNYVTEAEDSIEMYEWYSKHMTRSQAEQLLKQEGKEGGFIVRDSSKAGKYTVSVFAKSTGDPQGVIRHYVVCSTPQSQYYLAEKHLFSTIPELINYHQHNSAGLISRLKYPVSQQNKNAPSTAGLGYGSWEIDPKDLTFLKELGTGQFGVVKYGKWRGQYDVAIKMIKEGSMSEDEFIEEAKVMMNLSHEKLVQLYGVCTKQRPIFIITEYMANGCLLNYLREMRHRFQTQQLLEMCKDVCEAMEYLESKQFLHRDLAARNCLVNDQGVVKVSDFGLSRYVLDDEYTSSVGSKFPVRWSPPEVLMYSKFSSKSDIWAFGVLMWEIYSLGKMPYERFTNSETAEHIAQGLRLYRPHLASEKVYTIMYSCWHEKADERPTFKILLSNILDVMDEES
Conditions: not given
On the technique in general: In TR-FRET formats the signal depends on donor and acceptor labels being close together.
In general, IC50 refers to the concentration needed to halve the response being measured. As to `Nc1nccc2c([C@@H]3CC[C@H]4CCC(=O)N4C3)nn(-c3ccc(C(=O)Nc4cc(C(F)(F)F)ccn4)cc3)c12` [Example 38, 4-{7-amino-3-[(6R,8aS)-3-oxooctahydroindolizin-6-yl]-1H-pyrazolo[3,4-c]pyridin-1-yl}-N-[4-(trifluoromethyl)pyridin-2-yl]benzamide], the IC50 was 0.17 nM. The same measure, in the same setting: then `N#CC1(C(=O)N2CCC[C@@H](c3nn(-c4ccc(C(=O)Nc5cc(C(F)(F)F)ccn5)cc4)c4c(N)nccc34)C2)CC1` [Example 27, 4-(7-amino-3-{(3R)-1-[(1-cyanocyclopropyl)carbonyl]piperidin-3-yl}-1H-pyrazolo[3,4-c]pyridin-1-yl)-N-[4-(trifluoromethyl)pyridin-2-yl]benzamide], with 2.2 nM.

The same test, now with this note: read-out: BTK binding IC50; 50 pM hBTK, 2 μM biotin-A5-peptide, 25 μM ATP; 60 minute compound & enzyme incubation.
As for `CO[C@@H](C)C(=O)N1C[C@H](c2nn(-c3ccc(C(=O)Nc4cc(C5CC5)ccn4)cc3)c3c(N)nccc23)CC[C@@H]1C` [Example 33, 4-(7-amino-3-{(3R,6S)-1-[(2S)-2-methoxypropanoyl]-6-methylpiperidin-3-yl}-1H-pyrazolo[3,4-c]pyridin-1-yl)-N-(4-cyclopropylpyridin-2-yl)benzamide], the half-inhibitory concentration (IC50) came to 2 nM. Regarding `CC1(C(=O)N2CCC[C@@H](c3nn(-c4ccc(C(=O)Nc5cc(C(F)(F)F)ccn5)cc4)c4c(N)nccc34)C2)CC1` [Example 26, 4-(7-amino-3-{(3R)-1-[(1-methylcyclopropyl)carbonyl]piperidin-3-yl}-1H-pyrazolo[3,4-c]pyridin-1-yl)-N-[4-(trifluoromethyl)pyridin-2-yl]benzamide], the IC50 stood at 0.81 nM.

In the case of `CCC(=O)N1CCO[C@@H](c2nn(-c3ccc(C(=O)Nc4cc(C(F)(F)F)ccn4)cc3)c3c(N)nccc23)C1` [Example 3, 4-{7-amino-3-[(2R)-4-propanoylmorpholin-2-yl]-1H-pyrazolo[3,4-c]pyridin-1-yl}-N-[4-(trifluoromethyl)pyridin-2-yl] benzamide], the IC50 worked out at 1.8 nM. The same measure, in the same setting: then `Nc1nccc2c([C@@H]3CCCN(C(=O)c4cnon4)C3)nn(-c3ccc(C(=O)Nc4cc(C(F)(F)F)ccn4)cc3)c12` [Example 13, 4-{7-amino-3-[(3R)-1-(1,2,5-oxadiazol-3-ylcarbonyl)piperidin-3-yl]-1H-pyrazolo[3,4-c]pyridin-1-yl}-N-[4-(trifluoromethyl)pyridin-2-yl]benzamide], with 4.7 nM; and `Nc1nccc2c([C@@H]3CC[C@H]4CCC(=O)N4C3)nn(-c3ccc(C(=O)Nc4cc(C(F)(F)F)ccn4)cc3OC3CC3)c12` [Example 39, 4-{7-amino-3-[(6R,8aS)-3-oxooctahydroindolizin-6-yl]-1H-pyrazolo[3,4-c]pyridin-1-yl}-3-(cyclopropyloxy)-N-[4-(trifluoromethyl)pyridin-2-yl] benzamide], with 2.8 nM.

Consider `Nc1nccc2c([C@@H]3CCCN(C(=O)C4(O)CC4)C3)nn(-c3ccc(C(=O)Nc4cc(C(F)(F)F)ccn4)cc3)c12` [Example 25, 4-(7-amino-3-{(3R)-1-[(1-hydroxycyclopropyl)carbonyl]piperidin-3-yl}-1H-pyrazolo[3,4-c]pyridin-1-yl)-N-[4-(trifluoromethyl)pyridin-2-yl]benzamide], for which the concentration for half-maximal inhibition (IC50) turned out to be 0.59 nM. Turning to `COCCC(=O)N1CCC[C@@H](c2nn(-c3ccc(C(=O)Nc4cc(C(F)(F)F)ccn4)cc3)c3c(N)nccc23)C1` [Example 16, 4-{7-amino-3-[(3R)-1-(3-methoxypropanoyl)piperidin-3-yl]-1H-pyrazolo[3,4-c]pyridin-1-yl}-N-[4-(trifluoromethyl)pyridin-2-yl]benzamide], the IC50 stood at 0.51 nM. As to `Cc1noc(C)c1C(=O)N1CCC[C@@H](c2nn(-c3ccc(C(=O)Nc4cc(C(F)(F)F)ccn4)cc3)c3c(N)nccc23)C1` [Example 15, 4-(7-amino-3-{(3R)-1-[(3,5-dimethylisoxazol-4-yl)carbonyl]piperidin-3-yl}-1H-pyrazolo[3,4-c]pyridin-1-yl)-N-[4-(trifluoromethyl)pyridin-2-yl]benzamide], the IC50 was 5.3 nM. Take `C[C@H]1CC[C@@H](c2nn(-c3ccc(C(=O)Nc4cccc(OC5CC5)c4)cc3)c3c(N)nccc23)CN1C(=O)C1CC1` [Example 34, 4-(7-amino-3-((3R,6S)-1-(cyclopropanecarbonyl)-6-methylpiperidin-3-yl)-1H-pyrazolo[3,4-c]pyridin-1-yl)-N-(3-cyclopropoxyphenyl)benzamide]: the half-maximal inhibitory concentration (IC50) was determined as 0.87 nM.

For the molecule `CC1(C(=O)N2CCO[C@@H](c3nn(-c4ccc(C(=O)Nc5cc(C(F)(F)F)ccn5)cc4)c4c(N)nccc34)C2)COC1` [Example 1, (R)-4-(7-amino-3-(4-(3-methyloxetane-3-carbonyl)morpholin-2-yl)-1H-pyrazolo[3,4-c]pyridin-1-yl)-N-(4-(trifluoromethyl)pyridin-2-yl)benzamide], the IC50 came to 2.2 nM. For the molecule `C[C@H]1CC[C@@H](c2nn(-c3ccc(C(=O)Nc4cc(C5CC5)ccn4)cc3)c3c(N)nccc23)CN1C(=O)C1(C)COC1` [Example 30, 4-(7-amino-3-((3R,6S)-6-methyl-1-(3-methyloxetane-3-carbonyl)piperidin-3-yl)-1H-pyrazolo[3,4-c]pyridin-1-yl)-N-(4-cyclopropylpyridin-2-yl)benzamide], the IC50 was determined as 0.98 nM.

Consider `COc1ccnc(NC(=O)c2ccc(-n3nc([C@@H]4CCCN(C(=O)C5(C)COC5)C4)c4ccnc(N)c43)cc2)c1` [Example 28, (R)-4-(7-amino-3-(1-(3-methyloxetane-3-carbonyl)piperidin-3-yl)-1H-pyrazolo[3,4-c]pyridin-1-yl)-N-(4-methoxypyridin-2-yl)benzamide 2,2,2-trifluoroacetate], for which the IC50 worked out at 0.49 nM. The same measure, in the same setting: then `C[C@H]1CC[C@@H](c2nn(-c3ccc(C(=O)Nc4cc(C5CC5)ccn4)cc3)c3c(N)nccc23)CN1C(=O)C1CC1` [Example 31, 4-{7-amino-3-[(3R,6S)-1-(cyclopropylcarbonyl)-6-methylpiperidin-3-yl]-1H-pyrazolo[3,4-c]pyridin-1-yl}-N-(4-cyclopropylpyridin-2-yl)benzamide], with 1.3 nM; and `CCOCC(=O)N1CCC[C@@H](c2nn(-c3ccc(C(=O)Nc4cc(C(F)(F)F)ccn4)cc3)c3c(N)nccc23)C1` [Example 22, 4-{7-amino-3-[(3R)-1-(ethoxyacetyl)piperidin-3-yl]-1H-pyrazolo[3,4-c]pyridin-1-yl}-N-[4-(trifluoromethyl)pyridin-2-yl]benzamide], with 1.2 nM; and `COc1cc(C(=O)Nc2cc(C(F)(F)F)ccn2)ccc1-n1nc([C@@H]2CC[C@H]3CCC(=O)N3C2)c2ccnc(N)c21` [Example 40, 4-{7-amino-3-[(6R,8aS)-3-oxooctahydroindolizin-6-yl]-1H-pyrazolo[3,4-c]pyridin-1-yl}-3-methoxy-N-[4-(trifluoromethyl)pyridin-2-yl] benzamide], with 1.1 nM. In the case of `COc1ccnc(NC(=O)c2ccc(-n3nc([C@H]4CN(C(C)=O)CCO4)c4ccnc(N)c43)cc2)c1` [Example 6, 4-{3-[(2R)-4-acetylmorpholin-2-yl]-7-amino-1H-pyrazolo[3,4-c]pyridin-1-yl}-N-(4-methoxypyridin-2-yl)benzamide], the IC50 was 28.8 nM. Consider `COc1cc(C(=O)Nc2cccc(C(F)(F)F)c2)ccc1-n1nc([C@@H]2CC[C@H](C)N(C(=O)C3CC3)C2)c2ccnc(N)c21` [Example 37, 4-(7-amino-3-((3R,6S)-1-(cyclopropanecarbonyl)-6-methylpiperidin-3-yl)-1H-pyrazolo[3,4-c]pyridin-1-yl)-3-methoxy-N-(3-(trifluoromethyl)phenyl)benzamide], for which the concentration for half-maximal inhibition (IC50) was 2.1 nM. With `COCC(=O)Nc1nccc2c([C@H]3CN(C(=O)COC)CCO3)nn(-c3ccc(C(=O)Nc4cc(C(F)(F)F)ccn4)cc3)c12` [Example 4, 4-{7-[(methoxyacetyl)amino]-3-[(2R)-4-(methoxyacetyl)morpholin-2-yl]-1H-pyrazolo[3,4-c]pyridin-1-yl}-N-[4-(trifluoromethyl)pyridin-2-yl]benzamide], the half-maximal inhibitory concentration (IC50) turned out to be 46.5 nM. Still for that read-out and setting: then `COCC(=O)N1CCC[C@@H](c2nn(-c3ccc(C(=O)Nc4cc(C(F)(F)F)ccn4)cc3)c3c(N)nccc23)C1` [Example 18, 4-{7-amino-3-[(3R)-1-(methoxyacetyl)piperidin-3-yl]-1H-pyrazolo[3,4-c]pyridin-1-yl}-N-[4-(trifluoromethyl)pyridin-2-yl]benzamide], with 0.9 nM. On the same count and under the same terms, then `CC(=O)N1CCC[C@@H](c2nn(-c3ccc(C(=O)Nc4cc(C(F)(F)F)ccn4)cc3)c3c(N)nccc23)C1` [Example 21, 4-{3-[(3R)-l-acetylpiperidin-3-yl]-7-amino-1H-pyrazolo[3,4-c]pyridin-1-yl}-N-[4-(trifluoromethyl)pyridin-2-yl]benzamide], with 0.53 nM; and `CC(C)C(=O)N1CCC[C@@H](c2nn(-c3ccc(C(=O)Nc4cc(C(F)(F)F)ccn4)cc3)c3c(N)nccc23)C1` [Example 19, 4-{7-amino-3-[(3R)-1-(2-methylpropanoyl)piperidin-3-yl]-1H-pyrazolo[3,4-c]pyridin-1-yl}-N-[4-(trifluoromethyl)pyridin-2-yl]benzamide], with 1.2 nM; and `C[C@H]1CC[C@@H](c2nn(-c3ccc(C(=O)Nc4cccc(OC5CC5)c4)cc3)c3c(N)nccc23)CN1C(=O)C1(C)COC1` [Example 35, 4-(7-amino-3-((3R,6S)-6-methyl-1-(3-methyloxetane-3-carbonyl)piperidin-3-yl)-1H-pyrazolo[3,4-c]pyridin-1-yl)-N-(3-cyclopropoxyphenyl)benzamide], with 0.96 nM. `C[C@@H](O)C(=O)N1C[C@H](c2nn(-c3ccc(C(=O)Nc4cccc(OC5CC5)c4)cc3)c3c(N)nccc23)CC[C@@H]1C` [Example 36, 4-(7-amino-3-((3R,6S)-1-((R)-2-hydroxypropanoyl)-6-methylpiperidin-3-yl)-1H-pyrazolo[3,4-c]pyridin-1-yl)-N-(3-cyclopropoxyphenyl)benzamide]: the IC50 amounted to 30.4 nM.

Turning to `CC(=O)N1CCO[C@@H](c2nn(-c3ccc(C(=O)Nc4cc(C(F)(F)F)ccn4)cc3)c3c(N)nccc23)C1` [Example 2, 4-{3-[(2R)-4-acetylmorpholin-2-yl]-7-amino-1H-pyrazolo[3,4-c]pyridin-1-yl}-N-[4-(trifluoromethyl)pyridin-2-yl] benzamide], the IC50 is 2.9 nM.
